Source: US20180030080A1, “Phosphoramidate nucleoside prodrug for treating viral diseases and cancer, processes for their preparation and their use” (ASAVI, LLC, priority 2016, published 2018)

Experiments:
Assay type in all cases: cell-based
HBV = experiment: Anti-HBV activity in the AD-38 cell line using real-time quantitative PCR
Experimental: Anti-HBV activity of prodrugs of general formula 1 determination in the AD-38 cell line using a real-time quanitative PCR. a) Cell cultures. HepG2 AD38 cell line, harboring an integrated over-the-length HBV genomic DNA (Lander S, et. al, Antimicrobal Agents and Chemotherapy, 1997, pg. 1715-1720) were provided by Dr. C. Seeger, Fox Chase Cancer Center, Philadelphia, Pa.). Cells were grown in complete media (DMEM/F12 with 2 mM L-Glutamine (Thermo Scientific, Cat #11320033), 10% Fetal Bovine Serum (ThermoFisher Scientific, Cat#), 1% Antibiotic-antimitotic solution (ThermoFisher Scientific, Cat#15240096), and 0.3 μg/ml tetracyclin (Sigma, Cat # T7660-5G). Cells were plated onto Corning Biocoat 96-well plates (Corning, Cat #356407) in 225 ul of complete media (without teracyclin), 20000 cells/well. The prodrugs of general formula 1 were dissolved first in DMSO (Sigma cat. D2650), then in DMEM/F12 and 9 serial 3× dilutions were prepared and added to cells in 22.5 μl. The final prodrugs concentrations ranged from 10 μM to 1 nM. Cells grown in the presence of tetracyclin were used as a positive control, as HBV replication in this cell line is turned off by thetracyclin. Cell plates were incubated for 4 days at 37 C, 5% CO2. b) HBV DNA isolation. After 4 days, viral DNA was isolated from culture supernatants using PureLink® Pro 96 Genomic DNA Purification Kit (ThermoFisher Scientific, Cat # K183104A), according to manufacturer's recommendations. Eluted DNA samples were stored at −20 C. c) Quantitative real-time PCR (qPCR). PCR was performed on the CFX96™ Real-Time System (Bio-Rad, Hercules, Calif.) using AmpliTaq Gold® DNA Polymerase (Applied Biosystems®).
Ct values (cycle threshold) were obtained for each prodrug sample and normalized to untreated cells, according to formula E=(1/(1+100%))̂(Ct[studied prodrug sample]−Ct[K-]), where E is a normalized expression of studied gene, Ct[K-] and Ct[studied prodrug sample] are Ct values of untreated cells and studied prodrug sample. Inhibition curves were obtained and EC50 values were calculated using the Graph Prizm software (Table 3).

[1] = Cytotoxicity (viability, CC50) reported with the anti-HBV test; settings: human, HepG2 AD38 cells
HepG2 AD38 cell line = experiment: as above; settings: concentration not given

In the case of C=CCOC(=O)[C@H](C)N[P@](=O)(OC[C@@H]1O[C@H](n2cc(C)c(=O)[nH]c2=O)[C@H](F)[C@H]1O)Oc1ccccc1 [1.2(67), allyl (S)-2-{(S)-[(2S,3S,4R,5S)-4-fluoro-3-hydroxy-5-(5-methyl-2,4-dioxo-3,4-dihydro-2H-pyrimidin-1-yl)-tetrahydro-furan-2-ylmethoxy]-phenoxy-phosphorylamino}-propanoate], the EC50 (HBV; Hepatitis B virus, 96 h) is reported as 760 ± 110 nM, the “inhibition, %” value (HBV; against HBV, concentration not given) is reported as 88% and the CC50 [1] is reported as > 30000 nM. The “viability, %” value (HepG2 AD38 cell line) was 95%.
